Source: patent US11226337B2, “Chemoproteomic profiling of protein electrophilic and oxidative post-translational modifications” (Zenagem, LLC, priority 2017, dated 2022)

Key:
[1] = molecular target: T1, ALDH2 Aldehyde dehydrogenase (P05091) (Homo sapiens, UniProt P05091); assay: SILAC RP-ABPP; assay type: cell-based; conditions: SILAC H/L, HEK293T
T1 construct: shared by both the endogenous and recombinant forms of these proteins; endogenous in cells; host or cells: HEK293T and MDA-MB-231
T1 sequence (P05091 18-517): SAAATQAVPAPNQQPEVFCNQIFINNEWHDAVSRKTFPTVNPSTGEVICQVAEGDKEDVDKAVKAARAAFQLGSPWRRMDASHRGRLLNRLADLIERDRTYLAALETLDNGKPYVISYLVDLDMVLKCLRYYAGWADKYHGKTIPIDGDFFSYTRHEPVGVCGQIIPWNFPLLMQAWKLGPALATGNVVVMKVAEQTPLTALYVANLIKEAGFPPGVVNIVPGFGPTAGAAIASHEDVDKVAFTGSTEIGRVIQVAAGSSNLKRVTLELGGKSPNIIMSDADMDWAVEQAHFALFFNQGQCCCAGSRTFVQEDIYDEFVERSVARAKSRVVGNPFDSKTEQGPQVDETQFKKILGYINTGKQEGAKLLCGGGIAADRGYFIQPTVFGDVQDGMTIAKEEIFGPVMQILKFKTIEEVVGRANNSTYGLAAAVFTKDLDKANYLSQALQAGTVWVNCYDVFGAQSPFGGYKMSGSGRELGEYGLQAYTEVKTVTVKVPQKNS
Method: (§1) For MS-based experiments, labelling was performed in a similar manner as described above in Example 2, maintaining the same concentrations of probes. Modifications to this protocol included using isotopically ‘light’ and ‘heavy’ SILAC cells that were also grown to near complete confluence prior to treatment. Isotopically light cells were treated with the non-clickable hydrazine probe (at the same concentration as the probe in ‘enrichment’ experiments) or the probe in the presence of 10-fold excess non-clickable hydrazine probe as a competitor (in ‘competition’ experiments). Isotopically heavy cells were treated with the probe for both types of experiments. These treatments were performed in non-SILAC media. Following treatments, cells were washed with cold PBS to remove the probe-containing media, harvested by scraping, collected by centrifugation (1,400 g, 3 min, 4° C.), washed again by resuspension in cold PBS and frozen as pellets at −80° C. until use.
(§2) The fractionated equimolar mixture of heavy and light soluble proteomes (1-1.5 mg) was diluted to 1 mL in PBS. Click reactions were scaled accordingly (except for biotin-azide) to maintain final concentrations of 0.1 mM TBTA, 1 mM CuSO4, 100 μM biotin-azide (10 mM in DMSO) and 1 mM TCEP. The mixture was vortexed and placed on a rotator at ambient temperature for 1 hour. Sequential addition of and mixture with pre-chilled methanol (MeOH, 2 mL), chloroform (CHCl3, 0.5 mL) and PBS (1 mL) on ice quenched the reaction. The precipitated proteome was centrifuged (5,000 g, 10 min, 4° C.) to fractionate the protein interphase from the organic and aqueous solvent layers. The protein pellet was washed with cold 1:1 MeOH:CHCl3 (3×1 mL), mildly sonicated in cold 4:1 MeOH:CHCl3 (2.5 mL) and pelleted once more by centrifugation (5,000 g, 10 min, 4° C.) to ensure click reagents were efficiently removed.
(§3) Heavy and light parent ion chromatograms associated with successfully identified peptides were extracted and compared using CIMAGE software as previously described^69. At least one ion of a co-eluting heavy-light pair must be accurately identified from a fragmentation event that occurred within the retention time window (±10 min) of parent ion elution. To ensure that the correct pair of peaks is quantified, chromatograms are extracted within a 10 ppm error tolerance of the predicted m/z, the signal-to-noise ratio must be >2.5 and the ‘co-elution correlation score’ and ‘envelope correlation score’ must have R^2 values ≥0.8. In addition, peptides detected as ‘singletons,’ where only the heavy ion of a peptide pair was identified, but for which passed all other filtering parameters, are given a default assigned ratio of ‘20,’ which is defined as any measured ratio that is ≥20.
(§4) To further eliminate false positives and any stochastic variability in the data, protein ratios were then determined by the median peptide ratio derived from three or more unique quantified peptides. Protein ratios that complied with these criteria from a single experiment were then averaged with ratios acquired from ≥3 replicates to provide final values for each type of experiment in both cell lines with both probes. […] Most importantly, there are no robustly measured ratios for proteins identified as probe 1 targets that had measured ratios of ˜1 with probe 2. Probe targets in HEK293T and MDA-MB-231 cells represent data combined from ≥3 independent biological replicates with each cell type performed with several independent batches of synthesized probes over a period of almost two years. […]

[2] = molecular target: T2, RARS2 Probable arginine tRNA ligase (Q5T160) (Homo sapiens, UniProt Q5T160); assay: SILAC RP-ABPP; assay type: cell-based; conditions: SILAC H/L
T2 construct: shared by both the endogenous and recombinant forms of these proteins; endogenous in cells; host or cells: HEK293T and MDA-MB-231
T2 sequence (Q5T160 17-578): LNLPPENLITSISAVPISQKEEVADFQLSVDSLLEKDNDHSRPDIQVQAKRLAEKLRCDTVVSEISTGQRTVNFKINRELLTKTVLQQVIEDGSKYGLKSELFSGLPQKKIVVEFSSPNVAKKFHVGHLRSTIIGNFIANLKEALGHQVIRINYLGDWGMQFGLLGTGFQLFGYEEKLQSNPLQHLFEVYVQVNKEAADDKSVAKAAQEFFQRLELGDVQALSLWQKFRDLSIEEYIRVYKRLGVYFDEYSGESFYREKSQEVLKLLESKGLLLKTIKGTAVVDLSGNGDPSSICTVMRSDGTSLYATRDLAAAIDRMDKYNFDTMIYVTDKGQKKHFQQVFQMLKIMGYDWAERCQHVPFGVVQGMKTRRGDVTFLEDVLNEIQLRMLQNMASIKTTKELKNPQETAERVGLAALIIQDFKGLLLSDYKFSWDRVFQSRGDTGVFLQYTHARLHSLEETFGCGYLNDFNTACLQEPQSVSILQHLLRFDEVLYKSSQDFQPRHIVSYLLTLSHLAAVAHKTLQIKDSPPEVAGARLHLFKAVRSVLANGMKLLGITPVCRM
Method: as §1, §2, §3, §4

Row | enrichment ratioavg ([1]; probe 2 1 mM 0.5 h vs probe 4) | competition ratioavg ([1]; probe 2 vs probe 2+10x probe 4) | competition ratioavg ([2]; probe 2 vs probe 2+10x probe 4, cell line not given) | SMILES | enrichment ratioavg ([1]; probe 1 3 mM 0.5 h vs probe 3) | competition ratioavg ([1]; probe 1 vs probe 1+10x probe 3) | enrichment ratioavg ([2]; probe 1 3 mM 0.5 h vs probe 3, HEK293T) | competition ratioavg ([2]; probe 1 vs probe 1+10x probe 3, HEK293T)
1 | – | – | – | C#CCNN.Cl [probe 1, prop-2-yn-1-ylhydrazine hydrochloride] | 8 | 2 | 16 | 4
2 | 11 | 6 | 3 | C#CCCNC(=O)c1ccc(NN)cc1.Cl [probe 2, N-(but-3-yn-1-yl)-4-hydrazinylbenzamide hydrochloride] | – | – | – | –
